Read-outs that look alike come from different tables or passages of the source.

Experiment [1] concerns NMP53^−/− cells. Description: Colony formation assay on NMP53^−/− cells. Type of experiment: cell-based, murine. The following applies: colony formation assay; for minimal effective concentration: 5 days, read-out: EC (NMP53^−/−). The text has this: (§1) To evaluate the effect of small molecules equipped with R-spine interacting moieties, the inventors screened a focused library of proprietary p38a MAP-Kinase inhibitors which were equipped with R-spine interacting pharmacophores. To this end, the inventors utilized a screening system as developed in Dauch et al.^2 The screening system is based on colony formation assays of cell lines isolated from Nras-driven, Trp53-deficient murine HCCs, whose development is dependent on MYC (NMP53^−/− cells), as well as Nras-driven, Cdkn2a^ARF-deficient murine HCCs, which develop independently of MYC (NMCdkn2a^ARF−/− cells). Importantly, NMP53^−/− cells are sensitive to AURKA inhibitors, which induce a conformational shift in AURKA, whereas NMCdkn2a^ARF−/− are not sensitive to such compounds.
(§2) For Colony Formation Assays, cells were seeded at a density of 50 000 cells per 6 well and next day treated with a 2-fold dilution series of the indicated compounds or the highest corresponding DMSO concentration as control. After 5 days, the cells were fixed with a 10% formaldehyde solution for 30 min, washed once with water, stained with a 0.5% crystal violet solution for 30 min and washed twice with water. The compounds effective concentration (EC) was determined according to the lowest concentration in the dilution series, that inhibited cell growth substantially. The resulting benzamide containing hit structure 1, with a twofold selectivity towards NMP53^−/− cells (effective concentration on NMP53^−/− cells (EC): 2 μM, EC on Cdkn2a^ARF−/−: 4 μM, FIG. 1), served as the inventors' starting point for further compound development.

Experiment [2] has as its system NMCdkn2a^ARF−/− cells. Kind of experiment: Colony formation assay on NMCdkn2a^ARF−/− cells. Type of experiment: cell-based, murine. The note with it: 5 days, read-out: EC (NMCdkn2a^ARF−/−).
Excerpt: as §1, §2

In experiment [3] the target is AURKA (Homo sapiens (Human), UniProt O14965). Description: Radioisotope filter binding assay (HotSpotSM; ReactionBiology) for AURKA kinase inhibition. Type of experiment: biochemical. The text has this:
Table 2 summarizes the EC values of different compounds of this invention determined by colony formation assays on NMP53^−/− and NMCdkn2a^ARF−/− cells, as well as the corresponding IC50 values for the kinase inhibition of AURKA, determined by radioisotope filter binding assay (HotSpotSM; ReactionBiology). Most compounds further show a strong selectivity for NMP53^−/− cells, which is indicated by a lower EC concentration of a particular compound required for inhibiting cell growth of NMP53^−/− cells compared to NMCdkn2a^ARF−/− cells.

Setting [4] is: Mus musculus, 120 h, lowest concentration of 2-fold dilution series that inhibited cell growth substantially.

AURKA, sequence (O14965 whole entry): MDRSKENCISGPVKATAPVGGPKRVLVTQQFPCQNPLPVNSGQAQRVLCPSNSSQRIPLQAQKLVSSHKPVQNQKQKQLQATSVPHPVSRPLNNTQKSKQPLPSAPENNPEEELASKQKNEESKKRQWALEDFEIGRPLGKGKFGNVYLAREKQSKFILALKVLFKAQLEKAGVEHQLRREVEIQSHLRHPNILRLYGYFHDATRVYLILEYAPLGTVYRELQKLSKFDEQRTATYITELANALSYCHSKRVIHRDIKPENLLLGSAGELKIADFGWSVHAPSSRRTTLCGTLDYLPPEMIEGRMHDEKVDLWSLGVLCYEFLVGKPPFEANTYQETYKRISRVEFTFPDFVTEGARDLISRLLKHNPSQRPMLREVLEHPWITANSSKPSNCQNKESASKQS

The term IC50 denotes the concentration needed to halve the response being measured. The low end stands for higher potency, the high end for lower potency. As to `O=C(CCc1ccccc1)Nc1cc(NCc2ccc(-c3cn[nH]c3)cc2)ccc1F` [Compound 2a, N-(5-((4-(1H-pyrazole-4-yl)benzyl)amino)-2-fluorophenyl)-3-phenylpropanamide], the minimal effective concentration in experiment [1] (setting [4]) was 0.5 µM; in experiment [1], more than 4 µM; in experiment [2] it was more than 4 µM; in experiment [2] (setting [4]), 2 µM. Also, in experiment [1] (NMP53^−/− versus NMCdkn2a^ARF−/− cells), the “selectivity for NMP53^−/− cells” value was found to be 4 fold. The compound further gave an IC50 in experiment [3] of 6.9 µM.

For the compound `O=C(Cc1ccccc1)Nc1cc(NCc2cc(-c3cc4cccnc4[nH]3)ccn2)ccc1F` [Compound 18c, N-(5-(((4-(1H-Pyrrolo[2,3-b]pyridin-2-yl)pyridin-2-yl)methyl)amino)-2-fluorophenyl)-2-phenylacetamide], the minimal effective concentration in experiment [1] (Mus musculus, 120 h) amounted to 0.25 µM; in experiment [2] (Mus musculus, 120 h), 0.5 µM. Besides, in experiment [3], the IC50 was more than 10 µM.

`O=C(CCc1ccccc1)Nc1cc(NCc2ccc(-c3cn[nH]c3)cc2)ccc1F` [Compound 95b, N-(5-((4-(1H-Pyrazol-4-yl)benzyl)amino)-2-fluorophenyl)-3-phenylpropanamide]: the minimal effective concentration in experiment [1] was 0.5 µM; in experiment [2] (Mus musculus, 120 h), 2 µM. The same compound had an IC50 in experiment [3] of 0.0079 µM.

Consider `Cn1cc(-c2ccc(CNc3ccc(F)c(NC(=O)CCc4ccccc4)c3)cc2)cn1` [Compound 97, N-(2-fluoro-5-((4-(1-methyl-1H-pyrazol-4-yl)benzyl)amino)phenyl)-3-phenylpropanamide], for which the minimal effective concentration is 0.25 µM in experiment [1] (Mus musculus, 120 h) and 1 µM in experiment [2] (Mus musculus, 120 h). Further, the IC50 in experiment [3] amounted to 0.532 µM.

With `Cn1cc(-c2ccc(CNc3ccc(F)c(NC(=O)CCc4ccoc4)c3)cc2)cn1` [Compound 107n, N-(2-fluoro-5-((4-(1-methyl-1H-pyrazol-4-yl)benzyl)amino)phenyl)-3-(furan-3-yl)propanamide], the minimal effective concentration is 0.062 µM in experiment [1] (Mus musculus, 120 h) and more than 0.25 µM in experiment [2] (Mus musculus, 120 h). This compound also had an IC50 in experiment [3] of more than 10 µM.

In the case of `Cn1cc(-c2ccc(CNc3ccc(F)c(NC(=O)CCc4cccs4)c3)cc2)cn1` [Compound 107o, N-(2-fluoro-5-((4-(1-methyl-1H-pyrazol-4-yl)benzyl)amino)phenyl)-3-(thiophen-2-yl)propanamide], the minimal effective concentration is 0.125 µM in experiment [1] (Mus musculus, 120 h) and 1 µM in experiment [2] (Mus musculus, 120 h). For the same compound, the IC50 in experiment [3] is more than 10 µM.

`Cn1cc(-c2ccc(CNc3ccc(F)c(NC(=O)CCc4ccsc4)c3)cc2)cn1` [Compound 107p, N-(2-fluoro-5-((4-(1-methyl-1H-pyrazol-4-yl)benzyl)amino)phenyl)-3-(thiophen-3-yl)propanamide]: the minimal effective concentration in experiment [1] (Mus musculus, 120 h) was 0.062 µM; in experiment [2] (Mus musculus, 120 h), more than 0.25 µM. The compound also yielded an IC50 in experiment [3] of more than 10 µM.

As to `Cn1cc(-c2ccc(CNc3ccc(F)c(NC(=O)/C=C/c4ccco4)c3)cc2)cn1` [Compound 107r, (E)-N-(2-fluoro-5-((4-(1-methyl-1H-pyrazol-4-yl)benzyl)amino)phenyl)-3-(furan-2-yl)acrylamide], the minimal effective concentration in experiment [1] (Mus musculus, 120 h) was 0.062 µM; in experiment [2] (Mus musculus, 120 h), more than 0.25 µM. Also, the IC50 in experiment [3] is more than 10 µM.

For the compound `Cn1cc(-c2ccc(CNc3ccc(F)c(NC(=O)C=Cc4ccccc4)c3)cc2)cn1` [Compound 107s, N-(2-fluoro-5-((4-(1-methyl-1H-pyrazol-4-yl)benzyl)amino)phenyl)cinnamamide], the minimal effective concentration is 0.5 µM in experiment [1] (Mus musculus, 120 h) and more than 1 µM in experiment [2] (Mus musculus, 120 h). In experiment [3], this compound showed an IC50 of more than 10 µM.

Take `Cn1cc(-c2ccc(CNc3ccc(F)c(NC(=O)CCc4ccco4)c3)cc2F)cn1` [Compound 128a, N-(2-fluoro-5-((3-fluoro-4-(1-methyl-1H-pyrazol-4-yl)benzyl)amino)phenyl)-3-(furan-2-yl)propanamide]: the minimal effective concentration is 0.032 µM in experiment [1] (Mus musculus, 120 h) and 0.125 to 0.25 µM in experiment [2] (Mus musculus, 120 h).

`COc1cc(CNc2ccc(F)c(NC(=O)CCc3ccco3)c2)ccc1-c1cnn(C)c1` [Compound 128b, N-(2-fluoro-5-((3-methoxy-4-(1-methyl-1H-pyrazol-4-yl)benzyl)amino)phenyl)-3-(furan-2-yl)propanamide]: the minimal effective concentration in experiment [1] (Mus musculus, 120 h) was 0.062 µM; in experiment [2] (Mus musculus, 120 h), more than 0.5 µM.

With `Cn1cc(-c2ccc(CNc3ccc(F)c(NC(=O)CCc4ccco4)c3)c(F)c2)cn1` [Compound 128c, N-(2-fluoro-5-((2-fluoro-4-(1-methyl-1H-pyrazol-4-yl)benzyl)amino)phenyl)-3-(furan-2-yl)propanamide], the minimal effective concentration is 0.125 µM in experiment [1] (Mus musculus, 120 h) and 0.5 to 1 µM in experiment [2] (Mus musculus, 120 h).

Consider `COc1cc(-c2cnn(C)c2)ccc1CNc1ccc(F)c(NC(=O)CCc2ccco2)c1` [Compound 128d, N-(2-fluoro-5-((2-methoxy-4-(1-methyl-1H-pyrazol-4-yl)benzyl)amino)phenyl)-3-(furan-2-yl)propanamide], for which the minimal effective concentration in experiment [1] (Mus musculus, 120 h) is 0.031 µM; in experiment [2] (Mus musculus, 120 h) it was more than 0.5 µM.

On to `Cn1cc(-c2ccc(CNc3ccc(F)c(NC(=O)CCc4ccco4)c3)cn2)cn1` [Compound 128e, N-(2-fluoro-5-(((6-(1-methyl-1H-pyrazol-4-yl)pyridin-3-yl)methyl)amino)phenyl)-3-(furan-2-yl)propanamide], for which the minimal effective concentration in experiment [1] (Mus musculus, 120 h) is 0.25 µM; in experiment [2] (Mus musculus, 120 h), more than 2 µM.

In the case of `Cn1cc(-c2ccc(CNc3ccc(F)c(NC(=O)CCc4ccccc4)c3)nc2)cn1` [Compound 130, N-(2-fluoro-5-(((5-(1-methyl-1H-pyrazol-4-yl)pyridin-2-yl)methyl)amino)phenyl)-3-phenylpropanamide], the minimal effective concentration in experiment [1] (Mus musculus, 120 h) was 0.5 µM; in experiment [2] (Mus musculus, 120 h) it was more than 1 µM.

`Cc1noc(C)c1-c1ccc(CNc2ccc(F)c(NC(=O)CCc3ccco3)c2)cc1` [Compound 139, N-(5-((4-(3,5-Dimethylisoxazol-4-yl)benzyl)amino)-2-fluorophenyl)-3-(furan-2-yl)propanamide]: the minimal effective concentration was found to be 0.5 µM in experiment [1] (Mus musculus, 120 h) and 1 µM in experiment [2] (Mus musculus, 120 h).

For `Nc1n[nH]cc1-c1ccc(CNc2ccc(F)c(NC(=O)CCc3ccco3)c2)cc1` [Compound 144, N-(5-((4-(3-Amino-1H-pyrazol-4-yl)benzyl)amino)-2-fluorophenyl)-3-(furan-2-yl)propanamide], the minimal effective concentration in experiment [1] (Mus musculus, 120 h) was 0.25 µM; in experiment [2] (Mus musculus, 120 h), more than 1 µM.

On to `Cn1cc(-c2ccc(CNc3ccc(F)c(NC(=O)CCc4ccco4)c3)cc2)c(N)n1` [Compound 145, N-(5-((4-(3-Amino-1-methyl-1H-pyrazol-4-yl)benzyl)amino)-2-fluorophenyl)-3-(furan-2-yl)propanamide], for which the minimal effective concentration in experiment [1] (Mus musculus, 120 h) was 0.25 µM; in experiment [2] (Mus musculus, 120 h), more than 1 µM.

In the case of `Cn1ncc(-c2ccc(CNc3ccc(F)c(NC(=O)CCc4ccco4)c3)cc2)c1N` [Compound 146, N-(5-((4-(5-Amino-1-methyl-1H-pyrazol-4-yl)benzyl)amino)-2-fluorophenyl)-3-(furan-2-yl)propanamide], the minimal effective concentration in experiment [1] (Mus musculus, 120 h) is 0.125 µM; in experiment [2] (Mus musculus, 120 h) it was more than 1 µM.

For the compound `Cn1ccc(Nc2ccc(CNc3ccc(F)c(NC(=O)CCc4ccco4)c3)cc2)n1` [Compound 155, N-(2-fluoro-5-((4-((1-methyl-1H-pyrazol-3-yl)amino)benzyl)amino)phenyl)-3-(furan-2-yl)propanamide], the minimal effective concentration was 0.25 µM in experiment [1] (Mus musculus, 120 h) and more than 1 µM in experiment [2] (Mus musculus, 120 h).

Turning to `CC(=O)n1cc(-c2ccc(CNc3ccc(F)c(NC(=O)CCc4ccco4)c3)cc2)cn1` [Compound 164, N-(5-((4-(1-Acetyl-1H-pyrazol-4-yl)benzyl)amino)-2-fluorophenyl)-3-(furan-2-yl)propanamide], the minimal effective concentration in experiment [1] (Mus musculus, 120 h) is 0.125 µM; in experiment [2] (Mus musculus, 120 h), more than 1 µM.

Consider `NCCn1cc(-c2ccc(CNc3ccc(F)c(NC(=O)CCc4ccco4)c3)cc2)cn1` [Compound 167, N-(5-((4-(1-(2-Aminoethyl)-1H-pyrazol-4-yl)benzyl)amino)-2-fluorophenyl)-3-(furan-2-yl)propanamide], for which the minimal effective concentration worked out at 0.5 µM in experiment [1] (Mus musculus, 120 h) and 1 µM in experiment [2] (Mus musculus, 120 h).

The values are drawn from patent US20240101538A1, “PROTEIN-PROTEIN INTERACTION MODULATORS OF AURORA KINASE A AND THEIR USE IN THE PREVENTION AND/OR TREATMENT OF CANCER” (EBERHARD KARLS UNIVERSITÄT TÜBINGEN, priority 2020, published 2024).
